Assays:
Test in all cases: relative viability (nuclei count vs DMSO), 5 days (fraction); higher = more cells survive
[1] = compound: CC1=CC=C(C=C1)C(=O)CN2C3=C(CCCC3)SC2=N [Pifithrin_alpha] + CC(C)C[C@H](NC(=O)[C@H](Cc1ccccc1)NC(=O)c1cnccn1)B(O)O [Bortezomib] (partner 0.002 µM)
Outline: (§1)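 Cells from lung cancer lines were seeded into 1536-well plates and, one day later, dosed by pin tool. Treatments were either a single drug or a fixed dose of an anchor drug with five library-drug doses (not always all listed) in √10 steps. After 5 days, nuclei were stained in a one-step fixation (final 0.05% Triton X-100, 1% formaldehyde, 1 ug/ml Hoechst) and counted on 4× images, and relative viability is the treated-to-vehicle nuclei ratio, as the median of duplicate plates.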

[2] = compound: CC1=CC=C(C=C1)C(=O)CN2C3=C(CCCC3)SC2=N [Pifithrin_alpha] + COc1cc2c(Oc3ccc(NC(=O)C4(C(=O)Nc5ccc(F)cc5)CC4)cc3F)ccnc2cc1OCCCN1CCOCC1 [Foretinib] (partner 0.25 µM)
Outline: as §1

Axitinib + Tozasertib = compound: CNC(=O)c1ccccc1Sc1ccc2c(/C=C/c3ccccn3)n[nH]c2c1 [Axitinib] + Cc1cc(Nc2cc(N3CCN(C)CC3)nc(Sc3ccc(NC(=O)C4CC4)cc3)n2)n[nH]1 [Tozasertib] (partner 0.1 µM)
Outline: as §1

Bemcentinib + Vorinostat = compound: Nc1nc(Nc2ccc3c(c2)CC[C@@H](N2CCCC2)CC3)nn1-c1cc2c(nn1)-c1ccccc1CCC2 [Bemcentinib] + O=C(CCCCCCC(=O)Nc1ccccc1)NO [Vorinostat] (partner 1 µM)
Outline: as §1

Row | Cell Line | relative viability ([1]; first compound 1 µM) | relative viability ([1]; first compound 3.162 µM) | relative viability ([1]; first compound 10 µM) | relative viability ([1]; first compound 31.62 µM) | relative viability ([1]; first compound 100 µM) | relative viability ([2]; first compound 3.162 µM) | relative viability ([2]; first compound 10 µM) | relative viability ([2]; first compound 31.62 µM) | relative viability ([2]; first compound 100 µM) | relative viability (Axitinib + Tozasertib; first compound 0.005 µM) | relative viability (Axitinib + Tozasertib; first compound 0.01581 µM) | relative viability (Axitinib + Tozasertib; first compound 0.05 µM) | relative viability (Axitinib + Tozasertib; first compound 0.1581 µM) | relative viability (Axitinib + Tozasertib; first compound 0.5 µM) | relative viability (Bemcentinib + Vorinostat; first compound 0.04 µM) | relative viability (Bemcentinib + Vorinostat; first compound 0.1265 µM) | relative viability (Bemcentinib + Vorinostat; first compound 0.4 µM) | relative viability (Bemcentinib + Vorinostat; first compound 1.265 µM) | relative viability (Bemcentinib + Vorinostat; first compound 4 µM) | relative viability ([2]; first compound 1 µM)
1 | NCI-H1650 | 0.182 | 0.202 | 0.18 | 0.189 | 0.169 | 1.2 | 1.04 | 0.837 | 0.853 | 0.448 | 0.382 | 0.49 | 0.411 | 0.482 | 0.515 | 0.713 | 0.753 | 0.576 | 0.553 | 
2 | NCI-H1651 | 0.857 | 0.929 | 0.916 | 0.88 | 1.02 | 0.775 | 0.787 | 0.583 | 0.7 | 0.853 | 0.701 | 0.73 | 0.876 | 0.877 | 0.532 | 0.557 | 0.569 | 0.476 | 0.613 | 0.933
3 | NCI-H1666 | 0.635 | 0.472 | 0.465 | 0.404 | 0.28 | 0.933 | 0.867 | 0.781 | 0.763 | 0.684 | 0.638 | 0.643 | 0.7 | 0.706 | 1.02 | 1.24 | 1.07 | 1 | 0.998 | 0.969
4 | NCI-H1734 | 1.1 | 0.928 | 0.899 | 0.7 | 0.817 | 0.825 | 0.814 | 0.763 | 0.793 | 0.278 | 0.268 | 0.274 | 0.241 | 0.25 | 0.788 | 0.773 | 0.853 | 0.833 | 0.828 | 0.868
5 | NCI-H1755 | 0.894 | 0.907 | 0.866 | 0.862 | 0.971 | 0.833 | 0.849 | 0.674 | 0.862 | 0.608 | 0.541 | 0.605 | 0.632 | 0.617 | 0.783 | 0.808 | 0.754 | 0.823 | 0.923 | 0.819
6 | NCI-H1915 | 0.947 | 1.15 | 0.904 |  | 1.35 | 1.15 |  |  | 1.12 | 0.458 | 0.491 | 0.443 | 0.464 | 0.655 | 0.508 | 0.518 | 0.547 | 0.55 | 0.491 | 1.09
7 | NCI-H1975 | 0.34 | 0.306 | 0.305 | 0.335 | 0.271 | 0.8 | 0.572 | 0.55 | 0.568 | 0.79 | 0.819 | 0.719 | 0.875 | 0.867 | 0.709 | 0.805 | 0.776 | 0.808 | 0.777 | 0.869
8 | NCI-H1993 |  | 0.815 | 0.861 | 0.887 | 0.892 | 0.566 | 0.694 | 0.661 | 0.674 | 0.617 | 0.59 | 0.592 | 0.607 | 0.641 | 0.739 | 0.716 | 1.07 | 0.981 | 1.05 | 0.721
9 | NCI-H2009 | 0.551 | 0.907 | 0.942 | 0.444 | 0.798 | 1.26 | 1.18 | 0.829 | 1.05 | 0.76 | 0.815 | 0.708 | 0.786 | 1.08 | 0.671 | 0.783 | 0.71 | 0.723 | 0.722 | 1.19
10 | NCI-H2023 | 0.724 | 0.86 | 0.856 | 0.408 | 0.669 |  | 0.578 |  | 0.523 | 0.368 | 0.395 | 0.38 | 0.483 | 0.604 | 0.77 | 0.783 | 0.619 | 0.748 | 0.66 | 0.969
11 | NCI-H2085 | 0.993 | 1.07 | 1.01 | 0.878 | 1 | 1.11 | 1.07 | 0.78 | 0.844 | 0.652 | 0.771 | 0.807 | 0.827 | 0.913 | 0.762 | 0.822 | 0.778 | 0.795 | 0.764 | 
12 | NCI-H2087 | 0.733 | 0.768 | 0.941 | 0.489 | 1.02 | 1.21 | 1.07 |  | 1.03 | 0.247 | 0.294 | 0.282 | 0.321 | 0.357 | 0.567 | 0.836 | 1.1 | 0.665 | 0.678 | 1.1
13 | NCI-H2126 | 1.11 | 1.09 | 0.925 | 0.896 | 0.94 | 0.988 | 0.946 | 0.96 | 1.1 | 0.919 | 0.859 | 0.833 | 0.886 | 1 | 0.76 | 0.787 | 0.791 | 0.812 | 0.889 | 
14 | NCI-H2228 | 0.919 | 1.03 | 0.926 | 0.86 | 0.722 | 0.867 | 0.758 | 0.711 | 0.793 | 0.266 | 0.289 | 0.308 | 0.293 | 0.291 | 0.574 | 0.878 | 0.763 | 0.749 | 0.756 | 1.04
15 | NCI-H2347 | 0.695 |  | 0.855 | 0.814 | 0.874 |  | 1.05 | 0.689 | 0.804 | 0.589 | 0.524 | 0.609 | 0.498 | 0.675 | 0.544 | 0.596 | 0.718 | 0.67 | 0.575 | 0.684
16 | NCI-H2405 | 0.869 | 0.935 | 0.925 | 0.857 | 0.953 | 0.974 | 0.907 | 0.884 | 0.784 | 0.773 | 0.795 | 0.853 | 0.785 | 1 | 0.991 | 1.07 | 1.1 | 1.08 | 1.06 | 1.01

— the supplement of paper PMC10307832
